Earlier results as cited in paper PMC9697394, “Recent Synthesis, Characterization, and Pharmacological Evaluation of Multifunctional Hemorphins Containing Non-Natural Amino Acids with Potential Biological Importance” (Pharmaceuticals, 2022).

Experiments:
[1] = at the spinal level; 27.2 nmol i.t.
Description: (§1) Table 5 Bioactive hemorphin peptides. | column: Effect

[2] = tested on: WK rats and SHRs; details: radiotelemetry in WK rats and SHRs; 100 µg/kg
Description: as §1

[3] = tested on: rat; details: Barnes circular maze in rat; 100 pmol
Description: as §1

[4] = tested on: rat; details: rat blood pressure assay
Description: Table 5 Bioactive hemorphin peptides. | column: Concentration/Dose; Effect

Substance: Leu-Val-Val-Tyr-Pro-Trp-Thr-Gln-Arg-Phe [LVV-hemorphin-7]
- effect on carrageenan-induced hyperalgesia (in words) [1]: decrease
- effect on blood pressure (in words) [2]: Reduce blood pressure
- effect on spatial learning (in words) [3]: enhanced spatial learning
- cardiovascular activity (in words) [4]: pressor and tachycardic activities mediated by the SNS
- ED25 ([4]; pressor activity): 128.0 nmol/kg
